For 2 compounds, Ratio and MIC results are on record in ChEMBL document CHEMBL1255475, “Mutant prevention concentrations of four carbapenems against gram-negative rods” (2010).

Experiment [1] deals with Pseudomonas aeruginosa. As to the kind of experiment: Ratio of mutant prevention concentration to minimum Inhibitory concentration for Pseudomonas aeruginosa P319. It counts as functional.
For experiment [2], the system named is Pseudomonas aeruginosa. As to the kind of experiment: Ratio of mutant prevention concentration to minimum Inhibitory concentration for Pseudomonas aeruginosa P358. It counts as functional.
Experiment [3] deals with Acinetobacter baumannii. As to the kind of experiment: Ratio of mutant prevention concentration to minimum Inhibitory concentration for Acinetobacter baumannii A865. It counts as functional.
Experiment [4] deals with Acinetobacter baumannii. Kind of experiment: Ratio of mutant prevention concentration to minimum Inhibitory concentration for Acinetobacter baumannii A911. The format is functional.
Experiment [5] has as its system Escherichia coli. As to the kind of experiment: Antibacterial activity against beta-lactamase-negative Escherichia coli E350 after 24 hrs by agar dilution method. The note with it: E350, 24 h. For orientation: In agar dilution, organisms are placed on agar that contains the substance at set levels.
Experiment [6] relates to Klebsiella pneumoniae. Kind of experiment: Antibacterial activity against beta-lactamase-positive ESBL-negative Klebsiella pneumoniae E474 after 24 hrs by agar dilution method. It counts as functional. The note with it: E474, 24 h.
Experiment [7] has as its system Escherichia coli. Kind of experiment: Antibacterial activity against beta-lactamase-positive ESBL-negative Escherichia coli E430 after 24 hrs by agar dilution method. The following applies: E430, 24 h.
The test system of experiment [8] is Escherichia coli. As to the kind of experiment: Antibacterial activity against beta-lactamase-positive ESBL-positive Escherichia coli E446 after 24 hrs by agar dilution method. The note with it: E446, 24 h.
Experiment [9] concerns Escherichia coli. As to the kind of experiment: Antibacterial activity against beta-lactamase-positive ESBL-positive Escherichia coli E456 after 24 hrs by agar dilution method. The following applies: E456, 24 h.

≈ marks a conversion by molar mass, not a printed value.

Regarding `C[C@@H](O)[C@H]1C(=O)N2C(C(=O)O)=C(S[C@@H]3CN[C@H](CNS(N)(=O)=O)C3)[C@H](C)[C@H]12` [DORIPENEM], the Ratio in experiment [1] is on record as 4; in experiment [2], 8; in [3] it was 8; in experiment [4], 2.
Broadly, the MIC is the smallest concentration in the dilution series that meets the test's criterion for growth inhibition. Read a low MIC as greater potency. Consider `C[C@@H](O)[C@H]1C(=O)N2C(C(=O)O)=C(SCCNC=N)C[C@H]12` [IMIPENEM ANHYDROUS], for which the MIC in experiment [5] was 0.5 µg/mL (≈ 1.67 µM); in [6], 8 µg/mL (≈ 26.7 µM); in experiment [7], 0.5 µg/mL (≈ 1.67 µM); in experiment [8] it was 0.25 µg/mL (≈ 0.835 µM); in experiment [9], 0.125 µg/mL (≈ 0.418 µM).
